Measurements published in PubChem BioAssay AID1918957 (Molecular Pharmacology Branch, DTP, NCI, 2023).
pIC50: −log10 of the molar value.

System: NCI-H1876 complex spheroid viability
Experiment: Anticancer human tumor NCI-H1876 cell line growth inhibition [LSD1];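 note: spheroids exposed to compounds for one week before readout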;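 for viability, T/C: 100% = DMSO vehicle-treated spheroids so lower means fewer viable cells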
Conditions: for pIC50: curve of first compound; for viability, T/C: stronger effect = lower value
Method in brief: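 Drug combinations with the LSD1 inhibitor iadademstat tested on tumor cells co-cultured as spheroids with endothelial cells and mesenchymal stem cells. Concentrations descended in half-log increments from clinical Cmax or 10 microM.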

**Q.** What does the source list for `CC1(C)CCC(CN2CCN(c3ccc(C(=O)NS(=O)(=O)c4ccc(NCC5CCOCC5)c([N+](=O)[O-])c4)c(Oc4cnc5[nH]ccc5c4)c3)CC2)=C(c2ccc(Cl)cc2)C1` + NC1CC1c1ccc(-c2cccc(O)c2)cc1?
**A.** pIC50 (second compound 0.1 µM): 5.68; pIC50 (second compound 0.316 µM): 5.68; pIC50 (second compound 1 µM): 5.66; pIC50 (second compound 3.16 µM): 5.69; pIC50 (second compound 10 µM): 5.72; viability, T/C (second compound 0.1 µM, first compound 0.0316 µM): 111%; viability, T/C (second compound 0.1 µM, first compound 0.1 µM): 110%; viability, T/C (second compound 0.1 µM, first compound 0.316 µM): 117%; viability, T/C (second compound 0.1 µM, first compound 1 µM): 108%; viability, T/C (second compound 0.1 µM, first compound 3.16 µM): 16.6%; viability, T/C (second compound 0.1 µM, first compound 10 µM): 6.77%; viability, T/C (second compound 0.316 µM, first compound 0.0316 µM): 97.1%; viability, T/C (second compound 0.316 µM, first compound 0.1 µM): 85.9%; viability, T/C (second compound 0.316 µM, first compound 0.316 µM): 122%; viability, T/C (second compound 0.316 µM, first compound 1 µM): 110%; viability, T/C (second compound 0.316 µM, first compound 3.16 µM): 19.3%; viability, T/C (second compound 0.316 µM, first compound 10 µM): 7.99%; viability, T/C (second compound 1 µM, first compound 0.0316 µM): 99.5%; viability, T/C (second compound 1 µM, first compound 0.1 µM): 103%; viability, T/C (second compound 1 µM, first compound 0.316 µM): 105%; viability, T/C (second compound 1 µM, first compound 1 µM): 111%; viability, T/C (second compound 1 µM, first compound 3.16 µM): 23.3%; viability, T/C (second compound 1 µM, first compound 10 µM): 7.5%; viability, T/C (second compound 3.16 µM, first compound 0.0316 µM): 113%; viability, T/C (second compound 3.16 µM, first compound 0.1 µM): 122%; viability, T/C (second compound 3.16 µM, first compound 0.316 µM): 105%; viability, T/C (second compound 3.16 µM, first compound 1 µM): 99.8%; viability, T/C (second compound 3.16 µM, first compound 3.16 µM): 20.6%; viability, T/C (second compound 3.16 µM, first compound 10 µM): 8.68%; viability, T/C (second compound 10 µM, first compound 0.0316 µM): 112%; viability, T/C (second compound 10 µM, first compound 0.1 µM): 120%; viability, T/C (second compound 10 µM, first compound 0.316 µM): 110%; viability, T/C (second compound 10 µM, first compound 1 µM): 89.2%; viability, T/C (second compound 10 µM, first compound 3.16 µM): 19.8%; viability, T/C (second compound 10 µM, first compound 10 µM): 6.33%
